Entries after “also recorded” stand apart in the source; their conditions may differ.
Columns and labels:
TgCRND8 mice [1] = test: Open field test for motor activity; format: in vivo, mouse; conditions: treated TgCRND8 mice vs untreated TgCRND8 and non-Tg littermates
Method: Behavioural tests: Morris Water Maze testing was performed as previously described. After non-spatial pre-training, mice underwent place discrimination training for 5 days with 4-trials per day, followed by a cued visible platform to rule out general motivational, learning deficits and motor problems, and a probe trial to evaluate memory. […] Open field test for motor activity was preformed as described previously. Duration of walking, pausing and grooming were analyzed as indices of spontaneous locomotor activity. Sensorimotor function was examined with an Economex™ accelerating rotarod (Columbus Instruments, Columbus, Ohio), as described elsewhere. The rod was set to accelerate at a rate of 0.2 r.p.m./s, from an initial, constant speed of 5 r.p.m. Latency to fall was recorded in four daily trials, conducted at 30 min intervals. All mice were trained for seven days before testing. The test day performance score for each animal was obtained by summing its latency to fall over the four trials
Behavioral tests. Morris water maze testing was carried out as previously described. After nonspatial pretraining, mice underwent place discrimination training for 5 d with four trials per day, followed by a cued visible platform trial and a probe trial. An open-field test for motor activity was carried out as described previously. Sensorimotor function was assessed with an Economex accelerating rotarod (Columbus Instruments) as previously described.
Behavioural tests. Morris Water Maze testing was performed as previously described. After non-spatial pre-training, mice underwent place discrimination training for 5 days with 4-trials per day, followed by a cued visible platform to rule out general motivational, learning deficits and motor problems, and a probe trial to evaluate memory. The probe trial was conducted at 72 h after the last testing, and used an annulus-crossing index to assess spatial recall. […]
Duration of walking, pausing and grooming were analyzed as indices of spontaneous locomotor activity. […] Latency to fall was recorded in four daily trials, conducted at 30 min intervals. […]

Aβ oligomeric species = molecular target: T1, Aβ oligomeric species (Homo sapiens, UniProt P05067); test: Western blot of soluble brain fractions for Aβ species; format: in vivo, mouse
T1 construct: from tissue; host or cells: soluble fraction of hemi-brain homogenates of TgCRND8 transgenic mice
Method: Soluble Aβ oligomer analyses. Levels of soluble Aβ oligomers were measured by a dot-blot assay with oligomer-specific antibodies on all brain homogenates from all experimental groups. Soluble oligomers were also examined by western blot analyses.
Samples were centrifuged (100,000 g, 20 min, 4° C.), supernatant collected and frozen at −80° C. until use. Proteins (20 μg) were separated by SDS-PAGE on a 10-20% Tris-Tricine gel, transferred to a nitrocellulose membrane, blocked for 1 h at room temp with 8% non-fat milk and incubated overnight with anti-Aβ (6E10; 1:2,500). Membranes were rinsed with TBST, exposed to anti-mouse (1:5,000) for 1 h at room temperature, washed with TBST (6×10 min) and developed using enhanced chemiluminescence. Blots were stripped and re-probed with either anti-APP (22C11; 1:1,000) or anti-GAPDH (1:10,000) to confirm equal protein loading.

[2] = test system: long term potentiation (LTP) in mouse hippocampal slices; test: Long term potentiation in hippocampal slices with 7PA2 conditioned medium; format: cell-based
Method: Long Term Potentiation. Field potentials were recorded in CA1 of mouse hippocampus by standard procedures. Swiss Webster mice between the ages of P16 and P26 were anesthetized with isoflurane. […] The hippocampus from each hemisphere was isolated and 350 μm coronal sections were made. […] Once placed in the chamber, slices were continuously perfused by a closed loop containing 15 ml of ACSF to conserve the oligomeric Aβ. […] A bipolar stimulating electrode (World Precision Inst.) was placed in the Schaffer collaterals to deliver baseline stimuli and tetani. A borosilicate glass recording electrode (2-4 MΩ) containing ACSF was positioned approximately 75-200 μm from the stimulating electrode. […] Test stimuli were delivered at 0.05 Hz. To induce LTP, 4 tetani (100 Hz for 1 second) were delivered 5 minutes apart. Field potential responses were amplified 10× using an Axopatch 200B. The data was sampled at 10 kHz and filtered at 2 kHz. Traces were analyzed using pClamp 9.2. The slope of the field potential was estimated using approximately 10-60% of the total response.

[3] = wild-type mice
Method: Mice. […] A cohort of animals (n=10 mice per treatment arm) entered the study at five months of age, and outcomes were then analyzed after one month of treatment. The body weight, coat characteristics and in cage behaviour were monitored. Mannitol was used as a negative control for potential alterations in caloric intake. All experiments were performed according to the Canadian Council on Animal Care guidelines.
Mice. […] Mannitol was used as a negative control for potential alterations in caloric intake.

TgCRND8 mice [4] = test: Morris water maze spatial reference memory test; format: in vivo, mouse; conditions: separate cohort; 28 days of treatment from 5 months of age; data not shown
[5] = 4-month-old TgCRND8 mice, treated (n=4) vs untreated (n=4)
[6] = 4-month-old treated vs untreated TgCRND8 mice, densitometry

T1 sequence (P05067 672-713 limits assumed): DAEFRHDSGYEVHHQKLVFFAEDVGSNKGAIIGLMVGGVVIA

OC1C(O)C(O)C(O)C(O)C1O (centres unmarked) [scyllo-cyclohexanehexol, 1,3,5/2,4,6-(scyllo-) cyclohexanehexol]
open field: grooming, pausing, walking / activity levels (TgCRND8 mice [1]): indistinguishable; also recorded: does not affect activity levels
open field: grooming, pausing, walking / activity levels (TgCRND8 mice [1]; listed as AZD-103): does not affect activity levels
open field: grooming, pausing, walking / activity levels (TgCRND8 mice [1]; listed as Scyllo-cyclohexanehexol): no effect on grooming or activity
high-molecular-weight Aβ species (Aβ oligomeric species; [5]): decrease in high-molecular-weight Aβ species
smaller Aβ oligomers (Aβ oligomeric species; [5]): increase in smaller oligomers
increase in low-molecular-weight trimeric Aβ species (Aβ oligomeric species; [6]): 282±5%
reduction of high-molecular-weight Aβ oligomeric species (Aβ oligomeric species; [6]): 25±4.5%
synaptic response in the absence of a potentiating tetanus ([2]; baseline transmission, data not shown): did not change synaptic response
direct effect on LTP ([2]; compound-treated medium from plain CHO cells): no direct effect on LTP
survival, weight, fur condition, cage behavior [3]: no effect on survival, weight, fur condition or cage behavior
probe trial, % time in target quadrant, compared with non-Tg littermates (TgCRND8 mice [4]): not statistically different from non-Tg littermates

Reference: patent US20070197452A1, “Treatment of amyloid-related diseases” (priority 2006, published 2007)
